# Test results from patent publication EP2487185A1, “Hexapeptide with improved activity in the repair of cellular DNA of dermal cells” (Clinuvel Pharmaceuticals Limited, priority 2011, dated 2012).
# Non-standard residues stand in square brackets, D forms with d. Nle = CCCC[C@H](N)C(=O)O
# Legend:
# Type in all cases: cell-based, human
# melanocytes strain 1513c = assay: cAMP levels (125I radioimmunoassay), dose-response; conditions: 45 min, 0.1 mM IBMX; for maximal level of cAMP: at 10 nM
# Method: Dose-response experiments were carried out on three melanocytic strains, namely strains 1513c, 1505b and 105c melanocytes were treated with 1 pM-10 nM CUV9900 or NDP-MSH, or with 0.1-10 nM MSH for 45 minutes in the presence of 0.1 mM isobutyl methylxanthine (IBMX). The results obtained from strain 1513c are shown in Fig. 3, the results obtained from strain 1505b are shown in Fig. 5a and the results obtained from strain 105c are shown in Fig. 5b. The strains 1505b and 1513c were obtained from the same human adult while the strain 105c was obtained from another human adult. Cyclic AMP is the second messenger for the melanocortin-1 receptor, and assessment is usually performed indicating cellular activity reflective of melanogenesis. Cyclic AMP levels were determined using ^125I-labeled radioimmunoassay kit (Perkin Elmer, Waltham, MA), in human melanocytes that were treated with 0 (control), 0.1-10.0 nM α-MSH, or 0.001-10 nM NDP-MSH or 0.001-10.0 nM CUV 9900 for 45 min. in the presence of 0.1 mM IBMX, a phosphodiesterase inhibitor to prevent cAMP degradation. Triplicate wells were included in each group, and duplicate samples from each well were assayed for cAMP levels. Each data point is the mean percent of control of 6 determinations/group ±S.E.
# melanocyte strain 102b = assay: Tyrosinase activity, dose-response, 6 days treatment
# Method: Cell numbers as well as tyrosinase activity were then determined. Tyrosinase activity was calculated first at activity/10^6 cells, and then as % of control. Twenty-four hours prior the end of the experiment, melanocytes received ^3H-tyrosinase (0.7 µCi/ml medium). The conditioned medium from each dish was collected to be assayed for tyrosinase activity, and the cell numbers were determined using a Coulter Counter. Triplicate dishes were included in each group, and duplicate samples from each dish were assayed for tyrosinase activity. Each data point is the mean percent of control of 6 determinations/group ±S.E.
# melanocyte strain 1513c = assay: Tyrosinase activity as a measure of stability / residual effect; conditions: for Tyrosinase activity, column 3: 4 days after peptide removal
# Method: To determine the residual effect of CUV9900, as compared to NDP-MSH and α-MSH, on tyrosinase activity, melanocytes were treated with either CUV9900 or NDP-MSH at the concentrations previously described for a total of 3 days. Tyrosinase activity was measured at the end of the 3 days of treatment, and 2 and 4 days after maintenance of the melanocytes in the complete absence of any treatment. With continued reference to Figs. 7, 8 and 9, to determine the stability of CUV9900 versus that of NDP-MSH and α-MSH, melanocytes were treated with 1 nM of each peptide, namely with CUV9900, NDP-MSH and α-MSH, for a total of 6 days, or with 1 nM peptides that were incubated for 5 hours at 37 °C prior to addition to the cultures, every other day, for a total of 6 days. Tyrosinase activity was measured at the end of treatment. In the experiments, cell number represents the mean percent of control of 3 determinations/ group ±SE, and tyrosinase activity data represent the mean percent of control of 6 determinations ±S.E. It should be noted that for the sake of reproducibility the experiment of strain 1513c of Fig. 9 was performed once more 6 months later than the experiment of Fig. 7. […] Melanocytes were treated for 3 days with the designated concentrations of CUV9900, NDP-MSH, or MSH, then maintained in absence of peptides for 4 days. Tyrosinase activity was determined 3 days after treatment. Comparison of stability of CUV9900, NDP-MSH and MSH was compared in 1513c, as shown in Fig. 7; the strain was treated for 6 days with 1 nM CUV9900, NDP-MSH or MSH with fresh medium and peptide replenished every 2 days. Melanocytes were treated according to the same experiment protocol but each peptide was incubated for 5-7 hours at 37 degrees Celsius. […] The assessment of tyrosinase was statistically different from control, as determined by ANOVA (p=<0.05).
# melanocyte strain 1505b [1] = assay: as above; conditions: for Tyrosinase activity, column 1 / Tyrosinase activity, column 2 / Tyrosinase activity, column 3 / Tyrosinase activity, Mean: STRAIN 1505b; for Tyrosinase activity, column 1: Table 6 (Fig. 8), after 3 days of treatment; for Tyrosinase activity, column 1 / Tyrosinase activity, column 2 / Tyrosinase activity, column 3: 1nM; for Tyrosinase activity, column 2 / Tyrosinase activity, column 3 / Tyrosinase activity, Mean: Table 6; for Tyrosinase activity, column 2: column 2, not defined; for Tyrosinase activity, column 3: column 3, apparently 4 days after peptide removal; for Tyrosinase activity, Mean: mean of columns 1-3
# Method: To determine the residual effect of CUV9900, as compared to NDP-MSH and α-MSH, on tyrosinase activity, melanocytes were treated with either CUV9900 or NDP-MSH at the concentrations previously described for a total of 3 days. Tyrosinase activity was measured at the end of the 3 days of treatment, and 2 and 4 days after maintenance of the melanocytes in the complete absence of any treatment.
# With continued reference to Figs. 7, 8 and 9, to determine the stability of CUV9900 versus that of NDP-MSH and α-MSH, melanocytes were treated with 1 nM of each peptide, namely with CUV9900, NDP-MSH and α-MSH, for a total of 6 days, or with 1 nM peptides that were incubated for 5 hours at 37 °C prior to addition to the cultures, every other day, for a total of 6 days. Tyrosinase activity was measured at the end of treatment. In the experiments, cell number represents the mean percent of control of 3 determinations/ group ±SE, and tyrosinase activity data represent the mean percent of control of 6 determinations ±S.E. It should be noted that for the sake of reproducibility the experiment of strain 1513c of Fig. 9 was performed once more 6 months later than the experiment of Fig. 7.
# Melanocytes were treated for 3 days with the designated concentrations of CUV9900, NDP-MSH, or MSH, then maintained in absence of peptides for 4 days. Tyrosinase activity was determined 3 days after treatment.
# melanocyte strain 1505b [2] = assay: Cell proliferation as a measure of stability; conditions: for Cell proliferation, column 2: Table 3, 1nM, column 2, not defined; for Cell proliferation, Mean: Table 3, mean of columns 1-3
# [3] = STRAIN 1513c [1], Table 4 (Fig. 7), 1nM, after 3 days of treatment
# [4] = STRAIN 1513c [1], Table 4, 1nM, column 2, apparently 2 days after removal of peptides
# [5] = STRAIN 1513c [2], Table 5 (Fig. 9), 1 nM, 6 days, fresh peptide
# [6] = STRAIN 1513c [2], Table 5, 1 nM, 6 days, peptide incubated 5-7 hours at 37 degrees Celsius
# [7] = over the 2 experiments in strain 1513c
Substance,maximal level of cAMP (melanocytes strain 1513c),minimal effective dose (tyrosinase activity) (melanocyte strain 102b; 6 days treatment) [pM],"Tyrosinase activity, column 1 (melanocyte strain 1513c; [3])","Tyrosinase activity, column 3 (melanocyte strain 1513c; STRAIN 1513c [1], Table 4, 1nM)","Tyrosinase activity, column 2 (melanocyte strain 1513c; [4])","Tyrosinase activity, column 1 (melanocyte strain 1513c; [5])","Tyrosinase activity, column 2 (melanocyte strain 1513c; [6])","Tyrosinase activity, Mean (melanocyte strain 1513c; STRAIN 1513c [2], Table 5)","Tyrosinase activity, column 1 (melanocyte strain 1505b [1])","Tyrosinase activity, column 2 (melanocyte strain 1505b [1])","Tyrosinase activity, column 3 (melanocyte strain 1505b [1])","Tyrosinase activity, Mean (melanocyte strain 1505b [1])","Cell proliferation, column 2 (melanocyte strain 1505b [2])","Cell proliferation, Mean (melanocyte strain 1505b [2])",further results
"Ac-Nle-Glu His-D-Phe-Arg-Trp-NH2 (Ac-[Nle]EH[dF]RW-NH2; SMILES CCCC[C@H](NC(C)=O)C(=O)N[C@@H](CCC(=O)O)C(=O)N[C@@H](Cc1c[nH]cn1)C(=O)N[C@H](Cc1ccccc1)C(=O)N[C@@H](CCCNC(=N)N)C(=O)N[C@@H](Cc1c[nH]c2ccccc12)C(N)=O) [CUV9900, hexapeptide, alpha-MSH analogue]",higher maximal level of cAMP than MSH,1,284 % of control,160 % of control,203 % of control,385.1 % of control,388.7 % of control,386.9 % of control,259 % of control,199 % of control,126 % of control,194.7 % of control,120 % of control,115.7 % of control,"cAMP, potency comparison (melanocytes strain 1513c; at 0.1 nM): more potent than NDP-MSH; stimulation of tyrosinase activity, comparison with NDP-MSH (melanocyte strain 102b; subnanomolar concentrations): greater stimulation of tyrosinase activity than NDP-MSH; superior stability over MSH (tyrosinase activity) (melanocyte strain 1513c; [7]): 55.3%; superior stability over NDP (tyrosinase activity) (melanocyte strain 1513c; [7]): 15.7%; effect of incubation of the peptide on stimulation of tyrosinase activity (melanocyte strain 1513c; strain 1513c, 1 nM peptide incubated 5-7 hours at 37 degrees Celsius): no effect on its ability to stimulate tyrosinase activity; effect on tyrosinase activity after 3 days of treatment (melanocyte strain 1505b [1]; strain 1505b, 0.1 nM CUV9900, 1 nM MSH): 259 % of control; residual effects 4 days after peptide removal, comparison with MSH (melanocyte strain 1505b [1]; strain 1505b, 0.1 nM CUV9900 vs 1 nM MSH): equal"
"Ac-Ser-Tyr-Ser-Nle-Glu-His-D-Phe-Arg-Trp-Gly-Lys-Pro-Val-NH2 [NDP-MSH, reference compound]",higher maximal level of cAMP than MSH,1,302 % of control,164 % of control,203 % of control,329.9 % of control,229.2 % of control,279.6 % of control,175 % of control,155 % of control,115 % of control,148.3 % of control,105 % of control,105.0 % of control,concentration achieving equal maximal stimulation of tyrosinase (melanocyte strain 102b; 6 days treatment): 1 nM
